Source: patent publication US20240018121A1, “NOVEL HETEROAROMATIC COMPOUNDS EXHIBITING ANTIFUNGAL ACTIVITY AND THEIR METHOD OF USE” (FOX CHASE CHEMCIAL DIVERSITY CENTER, INC., priority 2020, published 2024)
In brackets after ≈: the same amount, converted by molar mass. Counter-ions that a name gives are not always drawn. Like-named read-outs stand apart in the source and are kept apart here.

Assays:
Type in all cases: cell-based
[1] = system: Fusarium solani (ATCC 58877); assay: Fungal MIC Protocol, Fusarium solani; conditions: for MIC: Fusarium solani, read-out: MIC Fusarium solani 58877
How it was run: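 Broth microdilution MIC test against Fusarium solani in RPMI/MOPS medium at pH 7.0. Compounds from DMSO stock were diluted to 200 ug/mL, then serially diluted ten times and plated in duplicate at 50 μl per well. 50 ul of spore suspension at OD530 0.005 was added. Controls had compound without cells and spores without compound. Plates were mixed gently, bagged, and incubated at 35° C. for 48 hours.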

[2] = system: Fusarium falciforme FS1 (ATCC MYA-3636); assay: Fungal MIC Protocol, Fusarium falciforme; conditions: for MIC: Fusarium falciforme, read-out: MIC Fusarium falciforme 3636
How it was run: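 MIC against Fusarium falciforme was determined by broth microdilution in RPMI/MOPS medium containing glucose. Compounds started at 200 ug/mL and were serially diluted ten times, then combined with harvested spores adjusted to an OD530 of 0.005. Controls held compound without cells and spores without compound. Plates were bagged and incubated at 35° C. for 48 hours.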

Candida albicans GDH2346 = assay: Candida Minimal Inhibitory Concentration (MIC); conditions: for MIC50: Candida albicans, read-out: MIC-50 Candida albicans GDH2346
How it was run: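 Twofold serial dilutions from 200 μg/mL in RPMI 1640/MOPS with glucose, pH 7.0, tested in duplicate against yeast from an OD600 1.0 suspension diluted 1:1000. Incubated at 35° C; OD600 read at 24 and 48 h.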

[3] = system: Aspergillus flavus AFL1 (ATCC MYA-3631); assay: Fungal MIC Protocol, Aspergillus flavus; conditions: for MIC: Aspergillus flavus, read-out: MIC Aspergillus flavus 3631
How it was run: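 The MIC against Aspergillus flavus was measured by broth microdilution in RPMI/MOPS medium at pH 7.0. Compounds were diluted to 200 ug/mL from DMSO stocks, then ten serial dilutions were tested in duplicate in round bottom 96-well plates. Spores adjusted to a final OD530 of 0.002 were added, with no-cell and no-compound control wells, and plates were incubated 48 hours at 35° C.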

[4] = system: Mucor circinelloides 1463(62) (ATCC 26759); assay: Fungal MIC Protocol, Mucor circinelloides (MIC-50); conditions: for MIC50: Mucor circinelloides, read-out: MIC-50 Mucorales circinelloides 26579
How it was run: (§1)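 Spores from PDA cultures (Aspergillus, Fusarium at 35 °C; Mucor at room temperature) diluted in RPMI/MOPS pH 7.0 to ~2×10^4 cfu/mL. Ten serial dilutions starting from 200 ug/mL in medium (before 1:1 mixing with spores), in duplicate; 48 h at 35 °C. MIC is the lowest concentration giving >50% visually scored growth inhibition.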

[5] = system: Aspergillus fumigatus T33439 (ATCC MYA-3626); assay: Fungal MIC Protocol, Aspergillus fumigatus; conditions: for MIC: Aspergillus fumigatus, read-out: MIC Aspergillus fumigatus 3626
How it was run: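 This broth microdilution MIC test used RPMI/MOPS medium at pH 7.0 with glucose. Compounds were diluted from DMSO stock to 200 ug/mL and serially diluted ten times in 96-well round bottom plates. Equal volumes of compound and Aspergillus spore suspension at OD530 0.002 were combined, with controls of compound without cells and spores without compound. Plates were bagged and incubated at 35° C. for 48 hours.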

[6] = system: Mucor ramosissimus 057718 (ATCC 90286); assay: Fungal MIC Protocol, Mucor ramosissimus (MIC-50); conditions: for MIC50: Mucor ramosissimus, read-out: MIC-50 Mucorales ramosissimus 90286
How it was run: as §1

[7] = ATCC58877, 100% growth inhibition at 48 hours
[8] = 100% growth inhibition at 48 hours
[9] = GDH2346, 50% growth inhibition at 48 hours
[10] = ATCC26759, 50% growth inhibition at 48 hours
[11] = ATCC90286, 50% growth inhibition at 48 hours
[12] = 50% growth inhibition at 48 hours

Row | SMILES | MIC [1, 7] | MIC [2, 8] | MIC50 (Candida albicans GDH2346; [9]) | MIC [3, 8] | MIC50 [4, 10] | MIC [5, 8] | MIC50 [6, 11] | further results
1 | N=C(N)N1CC=C(c2ccc(-c3nnc(-c4ccc(C5=CCN(C(=N)N)CC5)cc4F)n3CCCO)c(F)c2)CC1 [Example 73, 4-(4-{5-[4-(1-carbamimidoyl-1,2,3,6-tetrahydropyridin-4-yl)-2-fluorophenyl]-4-(3-hydroxypropyl)-4H-1,2,4-triazol-3-yl}-3-fluorophenyl)-1,2,3,6-tetrahydropyridine-1-carboximidamide hydrochloride] |  |  |  |  |  |  |  | MIC ([1]; ATCC58877, 48 h): 0.05 µg/mL; MIC ([2]; 48 h): 0.1 µg/mL; MIC50 (Candida albicans GDH2346; GDH2346, 48 h): 0.2 µg/mL; MIC ([3]; 48 h): 0.2 µg/mL; MIC50 ([4]; ATCC26759, 48 h): 1.56 µg/mL; MIC ([5]; 48 h): 0.1 µg/mL; MIC50 ([6]; ATCC90286, 48 h): 3.13 µg/mL
2 | Cc1c(-c2ccc(C3=CCN(C(=N)N)CC3)cc2)nnn1-c1ccc(C2=CCN(C(=N)N)CC2)cc1 [Example 31, 4-(4-{1-[4-(1-Carbamimidoyl-1,2,3,6-tetrahydropyridin-4-yl)phenyl]-5-methyl-1H-1,2,3-triazol-4-yl}phenyl)-1,2,3,6-tetrahydropyridine-1-carboximidamide] | < 0.05 µg/mL | < 0.05 µg/mL | 0.1 µg/mL (≈ 0.208 µM) | < 0.05 µg/mL | 0.78 µg/mL (≈ 1.62 µM) | < 0.05 µg/mL | 1.56 µg/mL (≈ 3.24 µM) | 
3 | N=C(N)N1CC=C(c2ccc(-c3nnc(-c4ccc(C5=CCN(C(=N)N)CC5)cc4F)o3)c(F)c2)CC1 [Example 48] | 3.13 µg/mL (≈ 6.2 µM) | < 0.1 µg/mL | 1.56 µg/mL (≈ 3.09 µM) | 0.78 µg/mL (≈ 1.55 µM) | 0.78 µg/mL (≈ 1.55 µM) | 0.78 µg/mL (≈ 1.55 µM) | 6.25 µg/mL (≈ 12.4 µM) | 
4 | N=C(N)N1CC=C(c2ccc(-c3nnc(-c4ccc(C5=CCN(C(=N)N)CC5)cc4)n3C3CCCC3)cc2)CC1 [Example 69, 4-(4-{5-[4-(1-carbamimidoyl-1,2,3,6-tetrahydropyridin-4-yl)phenyl]-4-cyclopentyl-4H-1,2,4-triazol-3-yl}phenyl)-1,2,3,6-tetrahydropyridine-1-carboximidamide trifluoroacetate] |  |  |  |  |  |  |  | MIC ([1]; ATCC58877, 48 h): < 0.1 µg/mL; MIC ([2]; 48 h): < 0.1 µg/mL; MIC50 (Candida albicans GDH2346; GDH2346, 48 h): 0.39 µg/mL; MIC ([3]; 48 h): 0.2 µg/mL; MIC50 ([4]; ATCC26759, 48 h): 0.39 µg/mL; MIC ([5]; 48 h): 0.1 µg/mL; MIC50 ([6]; ATCC90286, 48 h): 0.39 µg/mL
5 | N=C(N)NCCn1c(-c2ccc(C3=CCN(C(=N)N)CC3)cc2F)nnc1-c1ccc(C2=CCN(C(=N)N)CC2)cc1F [Example 16, 4,4′-(4,4′-(4-(2-guanidinoethyl)-4H-1,2,4-triazole-3,5-diyl)bis(3-fluoro-4,1-phenylene))bis(5,6-dihydropyridine-1(2H)-carboximidamide)] | < 0.1 µg/mL | < 0.1 µg/mL | 0.39 µg/mL (≈ 0.663 µM) | 0.39 µg/mL (≈ 0.663 µM) | 12.5 µg/mL (≈ 21.2 µM) | 0.39 µg/mL (≈ 0.663 µM) | > 100 µg/mL | 
6 | Cc1cc(C2=CCN(C(=N)N)CC2)ccc1-n1nnc(-c2ccc(C3=CCN(C(=N)N)CC3)cc2)c1C [Example 32, 4-(4-(1-(4-(1-Carbamimidoyl-1,2,3,6-tetrahydropyridin-4-yl)-2-methylphenyl)-5-methyl-1H-1,2,3-triazol-4-yl)phenyl)-5,6-dihydropyridine-1(2H)-carboximidamide] | 0.78 µg/mL (≈ 1.57 µM) | < 0.1 µg/mL | 0.08 µg/mL (≈ 0.161 µM) | 0.39 µg/mL (≈ 0.787 µM) | 0.78 µg/mL (≈ 1.57 µM) | 0.78 µg/mL (≈ 1.57 µM) | 6.25 µg/mL (≈ 12.6 µM) | 
7 | Cn1c(-c2ccc(C3=CCN(C(=N)N)C3)cc2)nnc1-c1ccc(C2=CCN(C(=N)N)C2)c(C(F)(F)F)c1 [Example 27, 3-(4-(5-(4-(1-Carbamimidoyl-2,5-dihydro-1H-pyrrol-3-yl)-3-(trifluoromethyl)phenyl)-4-methyl4H-1,2,4-triazol-3-yl)phenyl)-2,5-dihydro-1H-pyrrole-1-carboximidamide] | 0.2 µg/mL (≈ 0.383 µM) | < 0.1 µg/mL | 0.39 µg/mL (≈ 0.748 µM) | 0.39 µg/mL (≈ 0.748 µM) | 0.78 µg/mL (≈ 1.5 µM) | < 0.1 µg/mL | 6.25 µg/mL (≈ 12 µM) | 
8 | Cc1cc(-c2nnc(-c3ccc(C4=CCN(C(=N)N)CC4)cc3)o2)ccc1C1=CCN(C(=N)N)CC1 [Example 42, 4-(4-(5-(4-(1-Carbamimidoyl-1,2,3,6-tetrahydropyridin-4-yl)-3-methylphenyl)-1,3,4-oxadiazol-2-yl)phenyl)-5,6-dihydropyridine-1(2H)-carboximidamide] | 1.56 µg/mL (≈ 3.23 µM) | 0.39 µg/mL (≈ 0.808 µM) | 0.39 µg/mL (≈ 0.808 µM) | 6.25 µg/mL (≈ 13 µM) | 25 µg/mL (≈ 51.8 µM) | > 25 µg/mL | 25 µg/mL (≈ 51.8 µM) | 
9 | Cn1nc(-c2ccc(C3=CCN(C(=N)N)CC3)cc2)nc1-c1ccc(C2=CCN(C(=N)N)CC2)cc1 [Example 38, 4,4′-(4,4′-(1-Methyl-1H-1,2,4-triazole-3,5-diyl)bis(4,1-phenylene)) bis(5,6-dihydropyridine-1(2H)-carboximidamide)] |  |  |  |  |  |  |  | MIC Fusarium solani 58877 [1, 8]: <0.1 µg·mL; MIC Fusarium falciforme 3636 [2, 8]: 0.2 µg·mL; MIC-50 Candida albicans GDH2346 (Candida albicans GDH2346; [12]): 6.25 µg/mL (≈ 13 µM); MIC Aspergillus flavus 3631 [3, 8]: 0.16 µg·mL; MIC-50 Mucorales circinelloides 26579 [4, 12]: 3.13 µg/mL (≈ 6.5 µM); MIC Aspergillus fumigatus 3626 [5, 8]: 0.2 µg·mL; MIC-50 Mucorales ramosissimus 90286 [6, 12]: 0.78 µg/mL (≈ 1.62 µM)
10 | CN1CCC(n2c(-c3ccc(C4=CCN(C(=N)N)CC4)cc3F)nnc2-c2ccc(C3=CCN(C(=N)N)CC3)cc2F)CC1 [Example 15, 4,4′-(4,4′-(4-(1-Methylpiperidin-4-yl)-4H-1,2,4-triazole-3,5-diyl)bis(3-fluoro-4,1-phenylene))bis(5,6-dihydropyridine-1(2H)-carboximidamide)] | < 0.1 µg/mL | 0.78 µg/mL (≈ 1.3 µM) | 25 µg/mL (≈ 41.6 µM) | 3.13 µg/mL (≈ 5.21 µM) | > 100 µg/mL | 3.13 µg/mL (≈ 5.21 µM) | > 100 µg/mL | 
11 | CC(C)Cn1c(-c2ccc(C3=CCN(C(=N)N)CC3)cc2F)nnc1-c1ccc(C2=CCN(C(=N)N)CC2)cc1F [Example 14] | 6.25 µg/mL (≈ 11.2 µM) | < 0.1 µg/mL | 0.39 µg/mL (≈ 0.697 µM) | < 0.1 µg/mL | < 0.1 µg/mL | < 0.1 µg/mL | 1.56 µg/mL (≈ 2.79 µM) | 
12 | Cc1cc(C2=CCN(C(=N)N)CC2)ccc1-c1nnc(-c2ccc(C3=CCN(C(=N)N)CC3)cc2C)n1C [Example 22, 4,4′-(4,4′-(4-Methyl-4H-1,2,4-triazole-3,5-diyl)bis(3-methyl-4,1-phenylene))bis(5,6-dihydropyridine-1(2H)-carboximidamide)] | 0.2 µg/mL (≈ 0.392 µM) | 0.78 µg/mL (≈ 1.53 µM) | 0.16 µg/mL (≈ 0.314 µM) | 0.39 µg/mL (≈ 0.765 µM) | 1.56 µg/mL (≈ 3.06 µM) | 0.78 µg/mL (≈ 1.53 µM) | 6.25 µg/mL (≈ 12.3 µM) | 
13 | Cn1c(-c2ccc(C3=CCN(C(=N)N)CC3)cc2)nnc1-c1ccc(C2=CCN(C(=N)N)CC2)c(C(F)(F)F)c1 [Example 25, 4-(4-(5-(4-(1-Carbamimidoyl-1,2,3,6-tetrahydropyridin-4-yl)-3-(trifluoromethyl)phenyl)-4-methyl-4H-1,2,4-triazol-3-yl)phenyl)-5,6-dihydropyridine-1(2H)-carboximidamide] | 0.2 µg/mL (≈ 0.364 µM) | 0.2 µg/mL (≈ 0.364 µM) | 0.78 µg/mL (≈ 1.42 µM) | 0.39 µg/mL (≈ 0.71 µM) | 0.78 µg/mL (≈ 1.42 µM) | 0.2 µg/mL (≈ 0.364 µM) | 3.13 µg/mL (≈ 5.69 µM) | 
14 | COCCn1c(-c2ccc(C3=CCC(C(=N)N)CC3)cc2F)nnc1-c1ccc(C2=CCC(C(=N)N)CC2)cc1F.O=C(O)C(F)(F)F (centres unmarked) [Example 86, 4-(4-{5-[4-(4-carbamimidoylcyclohex-1-en-1-yl)-2-fluorophenyl]-4-(2-methoxyethyl)-4H-1,2,4-triazol-3-yl}-3-fluorophenyl)cyclohex-3-ene-1-carboximidamide trifluoroacetate] | 0.2 µg/mL | 0.78 µg/mL | 0.78 µg/mL | 0.78 µg/mL | 1.56 µg/mL | 0.78 µg/mL | 6.25 µg/mL | 
